The assay addresses Stimulator of interferon genes protein [1-379,R71H,G230A,H232R,R293Q] (Homo sapiens, UniProt Q86WV6, G230A/H232R/R293Q/R71H). Kind of assay: 3H-cGAMP Filtration Binding Assay (HAQ STING). The procedure: Compound and membrane then preincubated for 60 min at RT to allow compound binding to equilibrate. Following equilibration, 8 nM of [3H] c-GAMP ligand was prepared by diluting into assay buffer, and 50 uL of this working stock was then manually added to each well of the assay plate. […] The filter plates were then dried at 55° C. for 30 min using a pressurized VWR oven before 30 uL of Ultima GoldF scintillate was added to each well. Tritium levels for each reaction well were then measured using a PerkinElmer TopCount plate reader.

Molecules are shown by their SMILES. pEC50: −log10 of the molar value.

Stimulator of interferon genes protein [1-379,R71H,G230A,H232R,R293Q], sequence (Q86WV6 whole entry R71H/G230A/H232R/R293Q, looked up): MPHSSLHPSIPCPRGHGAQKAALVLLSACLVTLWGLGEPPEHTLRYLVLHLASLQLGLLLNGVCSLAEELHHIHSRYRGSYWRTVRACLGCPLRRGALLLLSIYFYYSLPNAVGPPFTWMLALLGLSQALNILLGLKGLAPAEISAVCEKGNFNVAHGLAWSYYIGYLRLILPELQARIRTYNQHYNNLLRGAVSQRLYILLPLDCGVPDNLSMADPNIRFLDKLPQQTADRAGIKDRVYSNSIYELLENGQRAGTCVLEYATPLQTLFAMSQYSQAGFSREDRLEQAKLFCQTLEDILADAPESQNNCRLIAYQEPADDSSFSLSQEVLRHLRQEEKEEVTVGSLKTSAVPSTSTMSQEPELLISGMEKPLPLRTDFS

`Nc1nc2c(ncn2[C@@H]2O[C@@H]3COP(=O)(S)OC4[C@@H](COP(=O)(S)O[C@H]2C3)O[C@@H](n2nnc3c(N)ncnc32)[C@H]4F)c(=O)[nH]1` (some centres not stated) [US11453697, Example 133] had a pEC50 of 7.21.
The compound `Nc1nc2c(ncn2[C@@H]2O[C@@H]3COP(=O)(S)O[C@H]4[C@H](F)[C@H](n5cnc6c(N)ncnc65)O[C@@H]4COP(=O)(O)O[C@@H]2[C@@H]3F)c(=O)[nH]1` (some centres not stated) [US11453697, Example 143] had a pEC50 of 8.98.

Usually pEC50 stands for the EC50 on a negative log10 scale, so that one unit is a factor of ten. Low readings indicate a large EC50, high ones a small EC50.
